Assay results: ChEMBL document CHEMBL1671751, “FRET-based sensors for the human M1-, M3-, and M5-acetylcholine receptors” (Bioorg Med Chem, 2011)

What was measured:
[1] = target: T1, Muscarinic acetylcholine receptor M5 (Homo sapiens) (UniProt P08912); experiment: Agonist activity at M5-ACh receptor-FLASH/CFP expressed in HEK293 cells assessed as rate constant at 100 uM to 1 mM by FRET method; format: functional, cell-based
T1 sequence (whole entry): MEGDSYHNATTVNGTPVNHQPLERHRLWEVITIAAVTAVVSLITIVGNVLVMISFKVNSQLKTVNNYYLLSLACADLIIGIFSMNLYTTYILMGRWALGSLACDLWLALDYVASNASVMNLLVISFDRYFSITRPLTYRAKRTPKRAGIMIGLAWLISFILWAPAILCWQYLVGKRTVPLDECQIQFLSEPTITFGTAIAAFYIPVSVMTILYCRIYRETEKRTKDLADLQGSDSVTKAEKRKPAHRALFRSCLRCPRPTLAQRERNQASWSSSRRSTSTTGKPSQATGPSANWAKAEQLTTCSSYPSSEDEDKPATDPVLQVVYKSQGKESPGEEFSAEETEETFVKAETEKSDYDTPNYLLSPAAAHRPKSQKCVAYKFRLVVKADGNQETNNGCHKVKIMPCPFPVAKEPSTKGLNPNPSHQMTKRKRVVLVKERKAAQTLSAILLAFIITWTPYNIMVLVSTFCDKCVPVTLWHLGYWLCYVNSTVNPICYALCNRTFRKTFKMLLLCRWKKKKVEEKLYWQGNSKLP

[2] = target: T1, Muscarinic acetylcholine receptor M5 (Homo sapiens); experiment: Agonist activity at M5-ACh receptor-FLASH/CFP expressed in HEK293 cells assessed as half-maximal activation time at 100 uM to 1 mM by FRET method; format: functional, cell-based
[3] = target: T2, Muscarinic acetylcholine receptor M5 (Homo sapiens, UniProt P08912); experiment: Activation of M5-ACh receptor-FLASH/CFP expressed in HEK293 cells assessed as FRET signal; format: cell-based
T2 sequence (P08912 whole entry): T1 sequence (whole entry)

[4] = target: Muscarinic acetylcholine receptor M3 (Homo sapiens, UniProt P20309); experiment: Activation of M3-ACh receptor-FLASH/CFP expressed in HEK293 cells assessed as FRET signal; format: cell-based
Chain of Muscarinic acetylcholine receptor M3 (P20309 whole entry): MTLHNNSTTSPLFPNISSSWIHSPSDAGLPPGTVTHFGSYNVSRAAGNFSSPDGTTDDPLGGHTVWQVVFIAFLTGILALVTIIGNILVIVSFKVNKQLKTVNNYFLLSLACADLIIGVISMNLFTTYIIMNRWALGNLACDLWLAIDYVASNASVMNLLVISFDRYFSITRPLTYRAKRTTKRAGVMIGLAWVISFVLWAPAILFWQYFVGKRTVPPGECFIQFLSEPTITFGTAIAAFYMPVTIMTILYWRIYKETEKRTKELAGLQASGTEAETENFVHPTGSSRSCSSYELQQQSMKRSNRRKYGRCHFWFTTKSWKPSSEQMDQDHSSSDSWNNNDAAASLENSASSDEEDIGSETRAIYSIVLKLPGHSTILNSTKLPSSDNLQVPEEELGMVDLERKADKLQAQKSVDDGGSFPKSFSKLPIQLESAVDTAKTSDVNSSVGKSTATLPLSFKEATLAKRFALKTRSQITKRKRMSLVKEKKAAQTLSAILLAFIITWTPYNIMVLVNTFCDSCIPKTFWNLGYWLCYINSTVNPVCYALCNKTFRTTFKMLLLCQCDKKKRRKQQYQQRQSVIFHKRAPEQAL

[5] = target: T3, Muscarinic acetylcholine receptor M1 (Homo sapiens, UniProt P11229); experiment: Activation of M1-ACh receptor-FLASH/CFP expressed in HEK293 cells assessed as FRET signal; format: cell-based
T3 sequence (P11229 whole entry): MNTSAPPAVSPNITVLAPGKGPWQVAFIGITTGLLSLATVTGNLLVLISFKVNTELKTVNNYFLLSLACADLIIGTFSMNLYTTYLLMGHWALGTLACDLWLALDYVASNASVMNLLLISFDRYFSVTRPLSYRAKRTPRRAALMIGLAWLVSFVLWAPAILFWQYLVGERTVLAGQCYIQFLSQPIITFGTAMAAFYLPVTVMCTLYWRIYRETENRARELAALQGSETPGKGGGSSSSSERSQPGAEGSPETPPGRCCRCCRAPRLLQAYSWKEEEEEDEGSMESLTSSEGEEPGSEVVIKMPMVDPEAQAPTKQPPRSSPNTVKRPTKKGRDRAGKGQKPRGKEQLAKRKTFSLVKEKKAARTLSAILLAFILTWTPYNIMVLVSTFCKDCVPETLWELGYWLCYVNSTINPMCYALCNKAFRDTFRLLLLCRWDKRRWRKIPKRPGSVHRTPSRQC

CC(=O)OCC[N+](C)(C)C
Activity [1]: 15.4 s⁻¹
TIME [2]: 1.81e-05 h

C[N+](C)(C)CCOC(N)=O
Activity [1]: 14.7 s⁻¹
TIME [2]: 1.89e-05 h

C[C@@H]1O[C@H](C[N+](C)(C)C)C[C@H]1O [MUSCARINE CHLORIDE]
EC50 [3]: 1300 nM
Activity [1]: 13.9 s⁻¹
EC50 [4]: 1000 nM
TIME [2]: 2e-05 h

C[N+](C)(C)CC#CCN1CCCC1=O [OXOTREMORINE METHIODIDE]
EC50 [3]: 2300 nM
EC50 [5]: 7400 nM
Activity [1]: 9.6 s⁻¹
EC50 [4]: 1800 nM
TIME [2]: 2.89e-05 h
